# Publication PMC11317875 (Chemical Science, 2024)
# Test system: Mycobacterium tuberculosis
# Assay: F-Tre uptake at a single time point, HPAEC-PAD of cytosolic extracts
# Type: cell-based
# Conditions: 0-200 μM probe, ion chromatography of cytosolic extracts
row,SMILES,uptake / accumulation in Mtb cells
1,"OC[C@H]1O[C@H](O[C@H]2O[C@H](CO)[C@@H](O)[C@H](O)[C@H]2F)[C@H](O)[C@@H](O)[C@@H]1O [2F-Tre, 2-deoxy-2-fluoro-trehalose]",significant dose-dependent increase in the accumulation

# Same assay, conditions: Mtb + 25 µM F-Tre, HPAEC trace
row,SMILES,Peak area of F-Tre peak
1,"OC[C@H]1O[C@H](O[C@H]2O[C@H](CO)[C@@H](O)[C@H](O)[C@H]2F)[C@H](O)[C@@H](O)[C@@H]1O [2F-Tre, 2-deoxy-2-fluoro-trehalose]",0.096 nC*min

# Same assay, conditions: Mtb + 50 µM F-Tre, HPAEC trace
row,SMILES,Peak area of F-Tre peak
1,"OC[C@H]1O[C@H](O[C@H]2O[C@H](CO)[C@@H](O)[C@H](O)[C@H]2F)[C@H](O)[C@@H](O)[C@@H]1O [2F-Tre, 2-deoxy-2-fluoro-trehalose]",0.206 nC*min

# Same assay, conditions: Mtb + 100 µM F-Tre, HPAEC trace
row,SMILES,Peak area of F-Tre peak
1,"OC[C@H]1O[C@H](O[C@H]2O[C@H](CO)[C@@H](O)[C@H](O)[C@H]2F)[C@H](O)[C@@H](O)[C@@H]1O [2F-Tre, 2-deoxy-2-fluoro-trehalose]",0.362 nC*min

# Same assay, conditions: Mtb + 200 µM F-Tre, HPAEC trace
row,SMILES,Peak area of F-Tre peak
1,"OC[C@H]1O[C@H](O[C@H]2O[C@H](CO)[C@@H](O)[C@H](O)[C@H]2F)[C@H](O)[C@@H](O)[C@@H]1O [2F-Tre, 2-deoxy-2-fluoro-trehalose]",1.328 nC*min

# Test system: Mycobacterium tuberculosis
# Assay: Time dependent F-Tre uptake, HPAEC-PAD of cytosolic extracts
# Type: cell-based
# Conditions: 100 μM probe, cytosolic extracts
# Description: lyophilised, resuspended in 1 mL 18 MΩ H2O and filtered through a 10-kDa molecular weight cut-off centrifuge filter (Amicon) and the filtrate analysed. HPAEC-PAD was performed on a Dionex ICS5000+ system with a CarboPac PA-20 analytical column (3 mm x 150 mm) and PA-20 guard column (3 mm x 30 mm) kept at 20 °C. Pulsed amperometry with standard quadrupole waveform was used for detection. The system was equipped with an autosampler that was set up to inject 10 μL sample volumes. Multistep gradient […]
# Chromeleon 7 software (Dionex) was used for data processing.
# Table S11: High performance anion exchange chromatography KOH elution gradient for F-Tre analysis Time (min) KOH conc. (mM) Flow rate (mL/min)
# To quantify uptake, the peak area of 2F-Tre, 3F-Tre and 6F-Tre standards at varying concentrations were measured (Chromeleon 7 software). The peak area was plotted against concentration and simple linear regression was plotted. To determine the concentration of F-Tre analogues in cytosolic samples the area of the peaks of interest was measured (Chromeleon 7 software) and the concentration determined from the calibration […]
# Time dependent F-Tre uptake
# M. tuberculosis was grown to an OD600 of 0.8, then 2F-Tre, 3F-Tre, 4F-Tre or 6F-Tre were added to a final concentration of 100 µM. Controls with the equivalent volume of water or equivalent concentration of trehalose were also prepared. 5 mL aliquots were taken at T=0, 0.5, 1, 1.5, 2, 3, 4, 6, 8 h and the cells were harvested by centrifugation (2,916 x g, 5 min, 22 ° C) and washed (5 mL PBST) three times. The pellets were then resuspended in 1 mL H2O and lysed by mechanical disruption using 0.1 mm zirconia/silica beads (BioSpec Products) on a FastPrep (MP Biomedicals) ribolyser (4 x 45 s cycles with 90 s on ice in between).
# Samples were then centrifuged (16,200 x g, 10 min, 22 °C) and the supernatant collected, lyophilised, resuspended in 1 mL 18 MΩ H2O and filtered through a 10-kDa molecular weight cut-off centrifuge filter (Amicon). The filtrate was analysed by HPAEC-PAD and quantified as described above.
row,SMILES,accumulation rate
1,"OC[C@H]1O[C@H](O[C@H]2O[C@H](CO)[C@@H](O)[C@H](O)[C@H]2F)[C@H](O)[C@@H](O)[C@@H]1O [2F-Tre, 2-deoxy-2-fluoro-trehalose]",0.80 µM/h

# Same assay, conditions: Time 0 h, 100 µM probe
row,SMILES,Mtb cytosolic concentration
1,"OC[C@H]1O[C@H](O[C@H]2O[C@H](CO)[C@@H](O)[C@H](O)[C@H]2F)[C@H](O)[C@@H](O)[C@@H]1O [2F-Tre, 2-deoxy-2-fluoro-trehalose]",0 ± 0 µM

# Same assay, conditions: Time 0.5 h, 100 µM probe
row,SMILES,Mtb cytosolic concentration
1,"OC[C@H]1O[C@H](O[C@H]2O[C@H](CO)[C@@H](O)[C@H](O)[C@H]2F)[C@H](O)[C@@H](O)[C@@H]1O [2F-Tre, 2-deoxy-2-fluoro-trehalose]",636 ± 33 µM

# Same assay, conditions: Time 1 h, 100 µM probe
row,SMILES,Mtb cytosolic concentration
1,"OC[C@H]1O[C@H](O[C@H]2O[C@H](CO)[C@@H](O)[C@H](O)[C@H]2F)[C@H](O)[C@@H](O)[C@@H]1O [2F-Tre, 2-deoxy-2-fluoro-trehalose]",838 ± 52 µM

# Same assay, conditions: Time 1.5 h, 100 µM probe
row,SMILES,Mtb cytosolic concentration
1,"OC[C@H]1O[C@H](O[C@H]2O[C@H](CO)[C@@H](O)[C@H](O)[C@H]2F)[C@H](O)[C@@H](O)[C@@H]1O [2F-Tre, 2-deoxy-2-fluoro-trehalose]",1144 ± 250 µM

# Same assay, conditions: Time 2 h, 100 µM probe
row,SMILES,Mtb cytosolic concentration
1,"OC[C@H]1O[C@H](O[C@H]2O[C@H](CO)[C@@H](O)[C@H](O)[C@H]2F)[C@H](O)[C@@H](O)[C@@H]1O [2F-Tre, 2-deoxy-2-fluoro-trehalose]",1717 ± 151 µM

# Same assay, conditions: Time 4 h, 100 µM probe
row,SMILES,Mtb cytosolic concentration
1,"OC[C@H]1O[C@H](O[C@H]2O[C@H](CO)[C@@H](O)[C@H](O)[C@H]2F)[C@H](O)[C@@H](O)[C@@H]1O [2F-Tre, 2-deoxy-2-fluoro-trehalose]",2917 ± 105 µM

# Same assay, conditions: Time 6 h, 100 µM probe
row,SMILES,Mtb cytosolic concentration
1,"OC[C@H]1O[C@H](O[C@H]2O[C@H](CO)[C@@H](O)[C@H](O)[C@H]2F)[C@H](O)[C@@H](O)[C@@H]1O [2F-Tre, 2-deoxy-2-fluoro-trehalose]",4597 ± 236 µM

# Same assay, conditions: Time 8 h, 100 µM probe
row,SMILES,Mtb cytosolic concentration
1,"OC[C@H]1O[C@H](O[C@H]2O[C@H](CO)[C@@H](O)[C@H](O)[C@H]2F)[C@H](O)[C@@H](O)[C@@H]1O [2F-Tre, 2-deoxy-2-fluoro-trehalose]",6639 ± 337 µM

# Same assay, conditions: up to the 8 hour timepoint
row,SMILES,saturation of uptake
1,"OC[C@H]1O[C@H](O[C@H]2O[C@H](CO)[C@@H](O)[C@H](O)[C@H]2F)[C@H](O)[C@@H](O)[C@@H]1O [2F-Tre, 2-deoxy-2-fluoro-trehalose]",no saturation of uptake

# Test system: Wild-type Mycobacterium bovis BCG
# Assay: not given
# Type: cell-based
# Conditions: 100 μM probe
row,SMILES,accumulation in cytosolic extracts
1,"OC[C@H]1O[C@H](O[C@H]2O[C@H](CO)[C@@H](O)[C@H](O)[C@H]2F)[C@H](O)[C@@H](O)[C@@H]1O [2F-Tre, 2-deoxy-2-fluoro-trehalose]",accumulate

# Test system: Mtb
# Assay: not given
# Type: cell-based, Mycobacterium tuberculosis
# Conditions: 100 μM probe
row,SMILES,new spots in the lipid extracts (TLC)
1,"OC[C@H]1O[C@H](O[C@H]2O[C@H](CO)[C@@H](O)[C@H](O)[C@H]2F)[C@H](O)[C@@H](O)[C@@H]1O [2F-Tre, 2-deoxy-2-fluoro-trehalose]",new spots

# Same assay, conditions: 100 μM probe; Fig. 8 shows Mtb and M. bovis BCG
SMILES,additional band in the TDM region (TLC),additional lower polarity bands than TMM (TLC)
"OC[C@H]1O[C@H](O[C@H]2O[C@H](CO)[C@@H](O)[C@H](O)[C@H]2F)[C@H](O)[C@@H](O)[C@@H]1O [2F-Tre, 2-deoxy-2-fluoro-trehalose]",one additional lower polarity TDM band,Two additional lower polarity bands than TMM

# Test system: M. bovis BCG
# Assay: not given
# Type: cell-based, Mycobacterium bovis BCG
# Conditions: 100 μM probe
row,SMILES,new spots in the lipid extracts (TLC)
1,"OC[C@H]1O[C@H](O[C@H]2O[C@H](CO)[C@@H](O)[C@H](O)[C@H]2F)[C@H](O)[C@@H](O)[C@@H]1O [2F-Tre, 2-deoxy-2-fluoro-trehalose]",new spots

# Test system: Mycobacterium tuberculosis
# Assay: Ion chromatography of hydrolysed lipid extracts of F-Tre labelled Mtb
# Type: cell-based
# Conditions: 100 µM probe, HPAEC-PAD
row,SMILES,detection in hydrolysed lipid extracts
1,"OC[C@H]1O[C@H](O[C@H]2O[C@H](CO)[C@@H](O)[C@H](O)[C@H]2F)[C@H](O)[C@@H](O)[C@@H]1O [2F-Tre, 2-deoxy-2-fluoro-trehalose]",detected

# Same assay, conditions: Mtb + F-Tre (100 µM)
row,SMILES,Peak area of F-Tre peak in hydrolysed lipid extracts
1,"OC[C@H]1O[C@H](O[C@H]2O[C@H](CO)[C@@H](O)[C@H](O)[C@H]2F)[C@H](O)[C@@H](O)[C@@H]1O [2F-Tre, 2-deoxy-2-fluoro-trehalose]",0.662 nC*min

# Target: LpqY (Mycolicibacterium thermoresistibile, UniProt G7CES0)
# Sequence (G7CES0 29-471): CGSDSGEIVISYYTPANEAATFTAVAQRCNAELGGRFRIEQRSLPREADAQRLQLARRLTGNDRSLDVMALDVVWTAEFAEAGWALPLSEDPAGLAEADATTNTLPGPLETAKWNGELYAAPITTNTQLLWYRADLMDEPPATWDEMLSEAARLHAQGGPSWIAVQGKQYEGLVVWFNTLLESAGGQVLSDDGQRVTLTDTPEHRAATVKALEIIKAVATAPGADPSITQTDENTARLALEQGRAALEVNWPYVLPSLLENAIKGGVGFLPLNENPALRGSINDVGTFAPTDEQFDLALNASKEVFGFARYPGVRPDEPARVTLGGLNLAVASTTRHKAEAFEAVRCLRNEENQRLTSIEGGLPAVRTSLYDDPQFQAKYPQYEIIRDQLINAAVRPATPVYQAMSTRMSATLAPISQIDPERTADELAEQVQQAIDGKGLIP
# Assay: Microscale thermophoresis (MST) binding to LpqY
# Conditions: not given
row,SMILES,Kd
1,"OC[C@H]1O[C@H](O[C@H]2O[C@H](CO)[C@@H](O)[C@H](O)[C@H]2F)[C@H](O)[C@@H](O)[C@@H]1O [2F-Tre, 2-deoxy-2-fluoro-trehalose]",770 ± 23.2 µM

# Same assay, conditions: compared with 3F-Tre, 6F-Tre and unmodified trehalose
row,SMILES,fold weaker binding to LpqY
1,"OC[C@H]1O[C@H](O[C@H]2O[C@H](CO)[C@@H](O)[C@H](O)[C@H]2F)[C@H](O)[C@@H](O)[C@@H]1O [2F-Tre, 2-deoxy-2-fluoro-trehalose]",~8 fold
